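Following 48 hours of exposure in 96-well plates, responses at five concentrations were used to interpolate endpoints linearly. Definition used: TGI = concentration required for complete inhibition of growth.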
Columns and labels:
Assay in all cases: growth of human tumour cells (NCI), 48 h
T-47D breast = system: T-47D breast
K-562 leukemia = system: K-562 leukemia
BT-549 breast = system: BT-549 breast
OVCAR-5 ovarian = system: OVCAR-5 ovarian
SN12C renal = system: SN12C renal
LOX IMVI melanoma = system: LOX IMVI melanoma
SK-MEL-2 melanoma = system: SK-MEL-2 melanoma
MCF7 breast = system: MCF7 breast
MDA-MB-231 breast = system: MDA-MB-231 breast
SF-295 CNS = system: SF-295 CNS

Row | Structure (SMILES) | TGI (T-47D breast) [µM] | TGI (K-562 leukemia) [µM] | TGI (BT-549 breast) [µM] | TGI (OVCAR-5 ovarian) [µM] | TGI (SN12C renal) [µM] | TGI (LOX IMVI melanoma) [µM] | TGI (SK-MEL-2 melanoma) [µM] | TGI (MCF7 breast) [µM] | TGI (MDA-MB-231 breast) [µM] | TGI (SF-295 CNS) [µM]
1 | COc1ccc2oc(S(=O)(=O)N3CC(CCl)c4ccc([N+](=O)[O-])cc43)cc2c1 (stereo not given) | 79.8 | 0.285 | 16.4 | > 100 | 14 | 1.38 | 2.96 | 14.4 | 1.23 | 0.196
2 | CC(C)(C)c1cc(C(O)(C(=O)O)C(=O)O)cc(C(C)(C)C)c1O | > 100 | > 100 | > 100 | > 100 | > 100 | > 100 | > 100 | > 100 | > 100 | > 100
3 | NNC(=O)CC(=O)Nc1ccc(Cl)cc1 | > 100 | > 100 | > 100 | > 100 | > 100 | > 100 | > 100 | > 100 | > 100 | > 100
4 | CC1(C)C2CCC1(CS(=O)(=O)Nc1ccccc1)C(=O)C2 (stereo not given) | > 100 | > 100 | > 100 | > 100 | > 100 | > 100 | > 100 | > 100 | > 100 | > 100
5 | O=S(=O)(c1ccccc1)n1c(C(O)c2ccncc2)cc2ccccc21 (stereo not given) | > 100 | > 100 | > 100 | > 100 | > 100 | > 100 | > 100 | 40.5 | > 100 | > 100
6 | CCCC(Sc1nc(N)nc2nc[nH]c12)C(=O)O (stereo not given) | > 100 | > 100 | > 100 | > 100 | > 100 | > 100 | > 100 | > 100 | > 100 | > 100
7 | Cc1c(-c2ccccc2)c(C#N)c2nnn(-c3ccccc3)c(=O)n12 | > 100 | > 100 | > 100 | > 100 | > 100 | > 100 | > 100 | > 100 | > 100 | > 100
8 | COc1cc2c(cc1OCCCC(=O)Nc1cc(C(=O)Nc3cc(C(=O)Nc4cc(C(=O)NCCCN(C)C)n(C)c4)n(C)c3)n(C)c1)N=C[C@@H]1CCCN1C2=O | 4 | > 100 | 4.91 | 9.38 | 2.63 | 2.26 | 6.79 | 7.25 | 5.53 | 26.4
9 | COc1cc(C2c3cc4c(cc3C(O)C3CCC(=O)N23)OCO4)cc(OC)c1OC (stereo not given) | > 100 | > 100 | 66.1 | > 100 | > 100 | > 100 | > 100 | 81 | > 100 | 32.6
10 | O=C(Nc1ccccc1)c1cc2c(cc1Cl)Sc1nccn1S2(=O)=O | > 72.9 | > 100 | 60.7 | > 86.3 | > 100 | 39 | 58.3 | > 60 | > 81.2 | > 100
11 | COc1ccc2c(c1)OCC1(O)Cc3ccccc3OC21 (stereo not given) | > 100 | > 100 | > 100 | > 100 | > 100 | > 100 | > 100 | > 100 | > 100 | > 100
12 | CCCC1NC(C#N)(C#N)C(CCC)NC1(C#N)C#N (stereo not given) | > 71.5 | > 77.6 | > 27 | > 90.1 | > 37 | 31.4 | > 100 | > 100 | > 89.7 | > 100
13 | O=C1Cc2c(-c3ccc(Cl)cc3)cc(-c3ccccc3)nc2-c2ccccc2N1 | 12.9 | > 100 | 50.7 | > 81 | 25 | 22.8 | 97.7 | > 42.5 | 20.1 | 26.6
14 | CC1(C)CCC[C@]2(C)[C@@H]1CC[C@@]13O[C@@H]1C1=C(CO)C(=O)O[C@]14O[C@@H]4[C@@H]23 | > 100 | > 55.2 | 31.8 | 31.8 | 20.5 | 24 | 31.6 | > 63.9 | 35.9 | 32.3
15 | Oc1ccc2c(c1)-c1c(c3cc(O)ccc3n1CCN1CCOCC1)CC2 | > 100 | 41 | 38.2 | > 100 | > 100 | 35.7 | 37.7 | 57.8 | 44.1 | 47.2
16 | COc1cc2c(cc1OC)C1CN3C(=O)CCC3C(O)C1c1cc(OC)c(OC)cc1-2 (stereo not given) | > 100 | > 100 | > 100 | > 100 | > 100 | > 100 | > 100 | > 100 | > 100 | > 100
17 | O=[N+]([O-])c1ccc2c(c1)nc(Cc1ccccc1)n2C[C@@H]1CCCN2CCCCC12 (stereo not given in full) | > 100 | 49.1 | > 100 | > 100 | > 100 | 60.2 | 44.8 | > 100 | 95.1 | 37.9

Row | Structure (SMILES) | TGI (T-47D breast) [µM] | TGI (K-562 leukemia) [µM] | TGI (BT-549 breast) [µM] | TGI (OVCAR-5 ovarian) [µM] | TGI (SN12C renal) [µM] | TGI (LOX IMVI melanoma) [µM] | TGI (SK-MEL-2 melanoma) [µM] | TGI (MCF7 breast) [µM] | TGI (MDA-MB-231 breast) [µM] | TGI (SF-295 CNS) [µM]
18 | N#CCCNCCN(CCN(C(=O)Nc1ccccc1)c1ccccc1)C(=O)Nc1ccccc1 | > 100 | > 100 | > 100 | > 100 | > 100 | > 100 | > 100 | > 100 | > 100 | > 100
19 | CN(C)CCCn1c(Cc2ccccc2)nc2cc(C(F)(F)F)ccc21 | 50.7 | 47 | 92.4 | > 100 | > 100 | 35.6 | 33 | 39.3 | 73.3 | 33.5
20 | COC(c1ccsc1)C(C#N)(C#N)N=Cc1ccsc1 (stereo not given) | 67.7 | 49.3 | 38.7 | 46.6 | 30.8 | 22 | 35.6 | 15.6 | 21.3 | 34.9
21 | O=C1NN=C(c2ccc(Cl)cc2)CC1C1C(=O)N(c2ccccc2)N=C1c1ccccc1 (stereo not given) | > 100 | > 100 | 54.4 | 80.7 | > 100 | 45.9 | 78.7 | > 100 | > 100 | > 100
22 | COc1cc(/C=C2\C[C@H]3[C@@H]4CC=C5C[C@@H](N6CCCC6)CC[C@]5(C)[C@H]4CC[C@]3(C)[C@H]2O)cc(OC)c1OC | 44.6 | > 100 | 30.1 | 24.4 | 29.6 | 20.8 | 35.9 | 22 | 33.6 | 26.6
23 | O=C(NCC1Nc2ccncc2S(=O)(=O)N1)c1ccc(Br)cc1 (stereo not given) | > 100 | > 100 | > 100 | > 100 | > 100 | > 100 | 57.4 | > 100 | > 100 | > 100
24 | Cc1cc(NS(=O)(=O)c2ccc(NC(=O)c3ccc4nc5ccccc5c(Nc5ccc(S(=O)(=O)N=C(N)N)cc5)c4c3)cc2)no1 | 34.4 | 27.7 | 46 | 31.8 | 34.4 | 23.1 | 33.4 | 36.4 | 29.4 | 38
25 | Brc1ccc2c(-c3nc(-c4c[nH]c5ccccc45)cs3)c[nH]c2c1 | > 100 | > 100 | > 96.8 | > 100 | > 100 | > 73 | > 84.3 | > 100 | > 89.4 | > 100
26 | CN(C(=O)C12C3C4(C(=O)O)C1(C(=O)N(C)C(C)(C)C)C1C2(C(=O)O)C3(C(=O)N(C)C(C)(C)C)C14C(=O)N(C)C(C)(C)C)C(C)(C)C (stereo not given) | > 100 | > 100 | > 100 | > 100 | > 100 | > 100 | > 100 | > 100 | > 100 | > 100
27 | CC1=NN(c2cccc(Cl)c2)C2(C1)C(Cl)C(=O)N2c1nc2ccccc2s1 (stereo not given) | 97.4 | 48.4 | 85.9 | > 100 | 82.3 | 34.9 | 38.7 | > 100 | 41.2 | 98.1
28 | CC/C(Cl)=N\OC(=O)Nc1ccc(OC)cc1 | 13.8 | > 100 | 3.17 | 11.3 | 11.4 | 4.89 | 33 | 12.2 | 17.3 | 31.1
29 | O=C(O)Cc1ccc(Oc2nc3ccccc3nc2-c2cccs2)cc1 | 63.6 | > 100 | > 100 | > 100 | > 100 | > 100 | > 100 | > 100 | > 100 | > 100
30 | CCCSc1cc(Cl)c(C)cc1S(=O)(=O)n1ccnc1OCCCN(C)C | > 100 | > 100 | > 100 | > 100 | > 100 | > 100 | > 100 | > 100 | > 100 | > 100
31 | O=c1c2ccccc2oc2c1ccc1ncccc12 | 31.2 | > 100 | 63 | 16.1 | > 100 | 43.8 | > 100 | 27.8 | > 100 | 45.9
32 | O=C1C=Cc2c(Cl)sc(Cl)c21 | > 22.7 | 3.21 | 7.92 | 24.8 | > 100 | 1.89 | 5.32 | 3.9 | > 100 | 27.1
33 | C[C@]12CC[C@H]3[C@@H](CCC4=CC(=O)C=C[C@@]43O)[C@@H]1CCC2=O | > 100 | > 100 | > 100 | > 100 | > 100 | > 100 | > 100 | > 100 | > 100 | > 100

Reference: PubChem BioAssay (NCI)
